Measured values from PubChem BioAssay (NCI).
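The compound was tested at five concentrations on cells cultured in 96-well plates, with a 48-hour exposure period. TGI: concentration producing complete growth inhibition.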

Key:
Assay in all cases: growth of human tumour cells (NCI), 48 h
ACHN renal = tested on: ACHN renal
MDA-N = tested on: MDA-N
MCF7 breast = tested on: MCF7 breast
SF-295 CNS = tested on: SF-295 CNS
SW-620 colon = tested on: SW-620 colon
786-0 renal = tested on: 786-0 renal
SR leukemia = tested on: SR leukemia
EKVX NSCLC = tested on: EKVX NSCLC
MOLT-4 leukemia = tested on: MOLT-4 leukemia
NCI/ADR-RES ovarian = tested on: NCI/ADR-RES ovarian
UO-31 renal = tested on: UO-31 renal
M14 melanoma = tested on: M14 melanoma
K-562 leukemia = tested on: K-562 leukemia
NCI-H226 lung = tested on: NCI-H226 lung
SN12C renal = tested on: SN12C renal
OVCAR-5 ovarian = tested on: OVCAR-5 ovarian
RXF 393 renal = tested on: RXF 393 renal
TK-10 renal = tested on: TK-10 renal
SNB-75 CNS = tested on: SNB-75 CNS
U251 CNS = tested on: U251 CNS
T-47D breast = tested on: T-47D breast
HCT-116 colon = tested on: HCT-116 colon
NCI-H460 lung = tested on: NCI-H460 lung
SK-MEL-2 melanoma = tested on: SK-MEL-2 melanoma
HT29 colon = tested on: HT29 colon
MDA-MB-231 breast = tested on: MDA-MB-231 breast
NCI-H522 lung = tested on: NCI-H522 lung
NCI-H23 lung = tested on: NCI-H23 lung
KM12 colon = tested on: KM12 colon
CCRF-CEM leukemia = tested on: CCRF-CEM leukemia
LOX IMVI melanoma = tested on: LOX IMVI melanoma
MDA-MB-435 = tested on: MDA-MB-435
UACC-257 melanoma = tested on: UACC-257 melanoma
DU-145 prostate = tested on: DU-145 prostate
IGROV1 ovarian = tested on: IGROV1 ovarian
HOP-62 NSCLC = tested on: HOP-62 NSCLC
SF-539 CNS = tested on: SF-539 CNS
BT-549 breast = tested on: BT-549 breast
PC-3 prostate = tested on: PC-3 prostate
SNB-19 CNS = tested on: SNB-19 CNS
SK-MEL-28 melanoma = tested on: SK-MEL-28 melanoma
SK-MEL-5 melanoma = tested on: SK-MEL-5 melanoma
SF-268 CNS = tested on: SF-268 CNS
SK-OV-3 ovarian = tested on: SK-OV-3 ovarian
UACC-62 melanoma = tested on: UACC-62 melanoma
COLO 205 colon = tested on: COLO 205 colon
OVCAR-4 ovarian = tested on: OVCAR-4 ovarian
OVCAR-3 ovarian = tested on: OVCAR-3 ovarian
CAKI-1 renal = tested on: CAKI-1 renal
HCT-15 colon = tested on: HCT-15 colon
A549 NSCLC = tested on: A549 NSCLC
RPMI-8226 leukemia = tested on: RPMI-8226 leukemia
OVCAR-8 ovarian = tested on: OVCAR-8 ovarian
A498 renal = tested on: A498 renal
MALME-3M melanoma = tested on: MALME-3M melanoma
HCC-2998 colon = tested on: HCC-2998 colon

CC(C)=CCC/C(C)=C/CCC(C(=O)COCc1ccccc1)P1(=O)OC(C)(C)CN1C(C)(C)C (stereo unspecified)
TGI (ACHN renal): > 100 µM
TGI (MDA-N): > 100 µM
TGI (MCF7 breast): > 100 µM
TGI (SF-295 CNS): > 100 µM
TGI (SW-620 colon): > 100 µM
TGI (786-0 renal): > 100 µM
TGI (SR leukemia): 46.5 µM
TGI (EKVX NSCLC): > 100 µM
TGI (MOLT-4 leukemia): 38.6 µM
TGI (NCI/ADR-RES ovarian): > 100 µM
TGI (UO-31 renal): > 100 µM
TGI (M14 melanoma): > 100 µM
TGI (K-562 leukemia): 73.9 µM
TGI (NCI-H226 lung): > 100 µM
TGI (SN12C renal): > 100 µM
TGI (OVCAR-5 ovarian): > 100 µM
TGI (RXF 393 renal): > 100 µM
TGI (TK-10 renal): > 100 µM
TGI (SNB-75 CNS): > 100 µM
TGI (U251 CNS): > 100 µM
TGI (T-47D breast): > 100 µM
TGI (HCT-116 colon): > 100 µM
TGI (NCI-H460 lung): > 100 µM
TGI (SK-MEL-2 melanoma): > 100 µM
TGI (HT29 colon): > 100 µM
TGI (MDA-MB-231 breast): > 100 µM
TGI (NCI-H522 lung): > 100 µM
TGI (NCI-H23 lung): > 100 µM
TGI (KM12 colon): > 100 µM
TGI (CCRF-CEM leukemia): 93.7 µM
TGI (LOX IMVI melanoma): > 100 µM
TGI (MDA-MB-435): > 100 µM
TGI (UACC-257 melanoma): > 100 µM
TGI (DU-145 prostate): > 100 µM
TGI (IGROV1 ovarian): > 100 µM
TGI (HOP-62 NSCLC): > 100 µM
TGI (SF-539 CNS): > 100 µM
TGI (BT-549 breast): > 100 µM
TGI (PC-3 prostate): > 100 µM
TGI (SNB-19 CNS): > 100 µM
TGI (SK-MEL-28 melanoma): > 100 µM
TGI (SK-MEL-5 melanoma): > 100 µM
TGI (SF-268 CNS): > 100 µM
TGI (SK-OV-3 ovarian): > 100 µM
TGI (UACC-62 melanoma): > 100 µM
TGI (COLO 205 colon): > 100 µM
TGI (OVCAR-4 ovarian): 81.2 µM
TGI (OVCAR-3 ovarian): > 100 µM
TGI (CAKI-1 renal): > 100 µM
TGI (HCT-15 colon): > 100 µM
TGI (A549 NSCLC): > 100 µM

CC(C)(C)OC/C=C(\Br)CO
TGI (ACHN renal): > 100 µM
TGI (MDA-N): > 100 µM
TGI (MCF7 breast): > 100 µM
TGI (RPMI-8226 leukemia): > 100 µM
TGI (SF-295 CNS): > 100 µM
TGI (SW-620 colon): > 100 µM
TGI (786-0 renal): > 100 µM
TGI (EKVX NSCLC): > 100 µM
TGI (MOLT-4 leukemia): > 100 µM
TGI (NCI/ADR-RES ovarian): > 100 µM
TGI (UO-31 renal): > 100 µM
TGI (M14 melanoma): > 100 µM
TGI (K-562 leukemia): > 100 µM
TGI (NCI-H226 lung): > 100 µM
TGI (SN12C renal): > 100 µM
TGI (OVCAR-5 ovarian): > 100 µM
TGI (RXF 393 renal): > 100 µM
TGI (SNB-75 CNS): > 100 µM
TGI (U251 CNS): > 100 µM
TGI (OVCAR-8 ovarian): > 100 µM
TGI (T-47D breast): > 100 µM
TGI (HCT-116 colon): > 100 µM
TGI (NCI-H460 lung): > 100 µM
TGI (SK-MEL-2 melanoma): > 100 µM
TGI (HT29 colon): > 100 µM
TGI (MDA-MB-231 breast): > 100 µM
TGI (NCI-H23 lung): > 100 µM
TGI (A498 renal): > 100 µM
TGI (MALME-3M melanoma): > 100 µM
TGI (KM12 colon): > 100 µM
TGI (CCRF-CEM leukemia): > 100 µM
TGI (MDA-MB-435): > 100 µM
TGI (UACC-257 melanoma): > 100 µM
TGI (DU-145 prostate): > 100 µM
TGI (HOP-62 NSCLC): > 100 µM
TGI (SF-539 CNS): > 100 µM
TGI (BT-549 breast): > 100 µM
TGI (PC-3 prostate): > 100 µM
TGI (SNB-19 CNS): > 100 µM
TGI (SK-MEL-28 melanoma): > 100 µM
TGI (SF-268 CNS): > 100 µM
TGI (SK-OV-3 ovarian): > 100 µM
TGI (UACC-62 melanoma): > 100 µM
TGI (COLO 205 colon): > 100 µM
TGI (HCC-2998 colon): > 100 µM
TGI (OVCAR-4 ovarian): > 100 µM
TGI (OVCAR-3 ovarian): > 100 µM
TGI (CAKI-1 renal): > 100 µM
TGI (HCT-15 colon): > 100 µM
TGI (A549 NSCLC): > 100 µM
